Experimental data as given in ChEMBL document CHEMBL4425171, “Cholinesterase inhibitory activity of chlorophenoxy derivatives-Histamine H3 receptor ligands” (Bioorg Med Chem Lett, 2016).
Activity calls are given as the source filed them. The calls are words filed in the database; no cut-off is given here.

Experiments:
Acetylcholinesterase = Acetylcholinesterase (Electrophorus electricus, UniProt O42275); assay: Inhibition of electric eel AChE using acetylthiocholine iodide as substrate preincubated for 5 mins followed by substrate addition measured after 5 mins by Ellmans method
Sequence of Acetylcholinesterase (O42275 whole entry): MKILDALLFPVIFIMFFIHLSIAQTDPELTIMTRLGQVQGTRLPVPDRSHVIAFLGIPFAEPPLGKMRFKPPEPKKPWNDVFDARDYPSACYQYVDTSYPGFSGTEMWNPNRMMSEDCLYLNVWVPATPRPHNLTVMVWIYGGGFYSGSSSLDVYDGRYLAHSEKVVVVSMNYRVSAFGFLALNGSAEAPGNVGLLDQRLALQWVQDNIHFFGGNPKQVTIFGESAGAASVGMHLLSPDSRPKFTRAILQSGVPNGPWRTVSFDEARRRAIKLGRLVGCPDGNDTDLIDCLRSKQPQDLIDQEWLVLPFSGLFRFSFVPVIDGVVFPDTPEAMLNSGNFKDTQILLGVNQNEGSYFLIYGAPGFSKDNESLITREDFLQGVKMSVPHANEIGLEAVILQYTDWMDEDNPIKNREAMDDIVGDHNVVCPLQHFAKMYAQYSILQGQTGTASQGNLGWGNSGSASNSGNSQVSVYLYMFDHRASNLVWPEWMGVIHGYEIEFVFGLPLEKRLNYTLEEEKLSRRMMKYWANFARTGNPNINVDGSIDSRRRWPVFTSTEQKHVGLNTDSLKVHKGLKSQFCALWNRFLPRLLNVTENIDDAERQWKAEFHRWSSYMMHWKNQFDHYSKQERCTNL

Cholinesterase [1] = biological target: T1, Cholinesterase (Equus caballus, UniProt P81908)
T1 sequence (P81908 whole entry): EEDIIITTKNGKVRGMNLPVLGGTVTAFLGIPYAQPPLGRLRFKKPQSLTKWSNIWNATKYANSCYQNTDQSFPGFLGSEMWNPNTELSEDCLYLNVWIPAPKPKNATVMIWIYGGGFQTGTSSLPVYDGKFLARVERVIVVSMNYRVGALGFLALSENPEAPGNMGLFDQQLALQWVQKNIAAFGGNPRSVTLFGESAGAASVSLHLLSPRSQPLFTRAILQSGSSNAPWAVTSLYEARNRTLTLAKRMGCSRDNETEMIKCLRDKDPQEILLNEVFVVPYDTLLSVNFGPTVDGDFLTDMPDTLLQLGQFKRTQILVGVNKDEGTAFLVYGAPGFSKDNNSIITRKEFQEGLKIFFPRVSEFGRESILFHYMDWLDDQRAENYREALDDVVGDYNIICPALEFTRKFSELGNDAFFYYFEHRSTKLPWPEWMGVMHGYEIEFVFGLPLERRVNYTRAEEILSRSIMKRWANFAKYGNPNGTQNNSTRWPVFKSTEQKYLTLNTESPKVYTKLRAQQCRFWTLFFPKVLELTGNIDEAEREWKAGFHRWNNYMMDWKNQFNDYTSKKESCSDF
Description: Inhibition of equine serum BChE using butyrylthiocholine chloride as substrate preincubated for 5 mins followed by substrate addition measured after 5 mins by Ellmans method

[2] = biological target: Cholinesterase (Equus caballus) (UniProt P81908); assay: Inhibition of equine serum BChE using butyrylthiocholine chloride as substrate at 10 uM preincubated for 5 mins followed by substrate addition measured after 5 mins by Ellmans method
Sequence of Cholinesterase (Equus caballus) (P81908 whole entry): as above

[3] = biological target: Acetylcholinesterase (Electrophorus electricus) (UniProt O42275); assay: Mixed-type inhibition of electric eel AChE using acetylthiocholine iodide as substrate at 5 to 20 uM by Lineweaver-Burk double reciprocal plot analysis
Sequence of Acetylcholinesterase (Electrophorus electricus) (O42275 24-633 limits assumed): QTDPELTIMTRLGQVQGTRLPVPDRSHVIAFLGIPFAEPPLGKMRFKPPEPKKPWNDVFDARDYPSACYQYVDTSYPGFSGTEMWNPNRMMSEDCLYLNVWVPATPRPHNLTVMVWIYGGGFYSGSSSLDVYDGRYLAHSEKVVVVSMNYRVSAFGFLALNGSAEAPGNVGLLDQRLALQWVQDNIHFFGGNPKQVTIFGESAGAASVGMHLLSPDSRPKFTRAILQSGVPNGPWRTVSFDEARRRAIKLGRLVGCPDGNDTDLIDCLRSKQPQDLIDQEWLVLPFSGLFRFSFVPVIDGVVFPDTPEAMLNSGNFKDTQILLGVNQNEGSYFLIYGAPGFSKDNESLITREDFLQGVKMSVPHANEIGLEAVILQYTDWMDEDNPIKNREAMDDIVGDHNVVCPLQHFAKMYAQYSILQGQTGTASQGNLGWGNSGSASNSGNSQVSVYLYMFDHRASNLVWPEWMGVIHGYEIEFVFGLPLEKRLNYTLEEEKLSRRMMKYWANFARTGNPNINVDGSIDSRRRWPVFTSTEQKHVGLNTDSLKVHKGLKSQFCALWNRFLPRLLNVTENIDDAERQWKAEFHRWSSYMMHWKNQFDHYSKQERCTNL

Histamine H3 receptor = Histamine H3 receptor (Homo sapiens, UniProt Q9Y5N1); assay: biochemical
Sequence of Histamine H3 receptor (Q9Y5N1 whole entry): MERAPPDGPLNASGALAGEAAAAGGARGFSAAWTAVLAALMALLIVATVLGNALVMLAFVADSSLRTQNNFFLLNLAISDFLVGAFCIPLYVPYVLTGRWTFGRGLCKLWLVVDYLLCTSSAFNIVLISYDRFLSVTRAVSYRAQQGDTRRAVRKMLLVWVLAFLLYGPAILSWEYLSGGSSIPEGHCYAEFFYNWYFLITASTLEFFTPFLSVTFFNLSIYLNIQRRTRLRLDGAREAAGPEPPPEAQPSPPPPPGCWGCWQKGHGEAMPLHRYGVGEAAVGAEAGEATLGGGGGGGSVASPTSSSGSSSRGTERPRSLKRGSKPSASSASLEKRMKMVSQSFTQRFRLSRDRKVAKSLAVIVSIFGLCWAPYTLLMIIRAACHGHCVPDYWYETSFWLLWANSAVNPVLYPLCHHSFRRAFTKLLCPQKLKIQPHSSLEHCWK
Description: Displacement of [3H]Nalpha-methylhistamine from human full length recombinant histamine H3 receptor expressed in HEK293 cell membranes after 90 mins by liquid scintillation counting method

[4] = biological target: Acetylcholinesterase (Electrophorus electricus) (UniProt O42275); assay: Inhibition of electric eel AChE using acetylthiocholine iodide as substrate at 10 uM preincubated for 5 mins followed by substrate addition measured after 5 mins by Ellmans method
[5] = biological target: Acetylcholinesterase (Electrophorus electricus) (UniProt O42275); assay: Mixed-type inhibition of electric eel AChE using acetylthiocholine iodide as substrate at 2 to 10 uM by Lineweaver-Burk double reciprocal plot analysis
[6] = biological target: Cholinesterase (Equus caballus) (UniProt P81908); assay: Non-competitive inhibition of equine serum BChE using butyrylthiocholine chloride as substrate at 2 to 5 uM by Lineweaver-Burk double reciprocal plot analysis
Cholinesterase [7] = biological target: T1, Cholinesterase; assay: Inhibition of equine serum BChE using butyrylthiocholine chloride as substrate preincubated for 4.5 mins followed by substrate addition measured after 2.5 mins by Ellmans method

SMILES | IC50 (Acetylcholinesterase) [µM] | IC50 (Cholinesterase [1]) [µM] | inhibition [2] [%] | also measured
Clc1cccc(OCCCCCCN2CCCCCC2)c1 | 5.4 | 2.43 |  | 
CC1CCCN(CCCCCCCOc2ccc(Cl)cc2)C1 (stereo not given) | 4.51 | > 10 | < 50 | inhibition [3]: Active
Clc1cccc(OCCCCCCN2CCCCC2)c1 | 18.6 | > 10 | < 50 | 
CC1CCCN(CCCCCCCOc2cccc(Cl)c2)C1 (stereo not given) | 3.8 | 5.15 |  | Ki (Histamine H3 receptor): 0.446 µM
Clc1cccc(OCCCCCCCN2CCCCC2)c1 | 5.33 | 4.75 |  | 
Clc1ccc(OCCCOCCCN2CCCCCC2)cc1 | 7.91 | 4.97 |  | 
CC1CCN(CCCCCCOc2cccc(Cl)c2)CC1 | 7.31 | 3.53 |  | 
CC1CCN(CCCCCCCOc2cccc(Cl)c2)CC1 | 4.9 | 1.66 |  | 
Clc1cccc(OCCCCCCCN2CCCCCC2)c1 | 2.42 | 0.9 |  | 
Clc1ccc(OCCCCCN2CCCCC2)cc1 | > 10 | > 10 | < 50 | inhibition [4]: < 50%
Clc1ccc(OCCCCCCCN2CCCCC2)cc1 | 3.94 | > 10 | < 50 | 
Clc1ccc(OCCCCCCN2CCCCC2)cc1 | > 10 | > 10 | < 50 | inhibition [4]: < 50%
CC1CCCN(CCCCCOc2ccc(Cl)cc2)C1 (stereo not given) | 23.6 | > 10 | < 50 | 
Clc1ccc(OCCCCCCCN2CCCCCC2)cc1 | 1.93 | 1.64 |  | inhibition [5]: Active; inhibition [6]: Active
CC1CCCN(CCCCCCOc2ccc(Cl)cc2)C1 (stereo not given) | 4.8 | > 10 | < 50 | 
CC1CCN(CCCCCCOc2ccc(Cl)cc2)CC1 | 8.11 | 5.43 |  | 
c1cc2c(cc1OCCCN1CCCCC1)CN1CCCC1=N2 |  |  |  | IC50 (Cholinesterase [7]): 8.2 µM
CC1CCCN(CCCCCCOc2cccc(Cl)c2)C1 (stereo not given) | 6.22 | > 10 | < 50 | 
CC1CCN(CCCCCCCOc2ccc(Cl)cc2)CC1 | 2.74 | 2.92 |  | 
Clc1ccc(OCCCCCCN2CCCCCC2)cc1 | 3.88 | 3.74 |  | 
CC1CCN(CCCCCOc2ccc(Cl)cc2)CC1 | > 10 | > 10 | < 50 | inhibition [4]: < 50%
Clc1ccc(OCCCCCN2CCCCCC2)cc1 | > 10 | 3.45 |  | inhibition [4]: < 50%
